Assay results as given in US20220370546A1, “PEPTIDE, COMPOSITION, AND METHOD FOR TREATING, PREVENTING, OR AMELIORATING MOOD DISORDER” (KYOTO UNIVERSITY, priority 2019, published 2022).

System: ddY mice
Assay: Tail suspension test (evaluation of motivation-enhancing effect)
Assay type: in vivo
Details: oral, in saline, n=5; 0.2 μmol/kg body weight; tail suspension test 30 minutes after administration
Method: Each of the prepared peptides was administered to mice (ddY mice (5-week-old male mice 24 to 28 g in body weight)) by the method shown below. The mice were then subjected to a tail suspension test for the evaluation of a motivation-enhancing effect.
Each peptide was dissolved in saline. The solution was orally administered to mice (n=5) such that each of peptides 3, 4, and 8 was administered in a dose of 0.3 mg/kg body weight and each of peptides 1, 2, 5, 6, and 7 was administered in a dose of 0.2 μmol/kg body weight. Control mice (n=5) were orally administered with only saline. Each of the mice was subjected to a tail suspension test in which the peptide of the present invention was evaluated for its efficacy to enhance motivation.
Thirty minutes after the administration of the peptide, each mouse was suspended with its tail fixed 30 cm above the floor. Subsequently, during a period of 6 minutes from the start of the test (0 minutes), the time (immobility time) during which the mouse remained in a motionless state, observed after the start of escape behavior, was measured, and the measurements were averaged. The motionless state is known as “despair state”. […] This means that materials effective in enhancing motivation in this test may be effective in treating, preventing, or ameliorating mood disorders. […]

Row | Substance | motivation-enhancing effect
1 | QSQ [Peptide 1] | particularly high level of motivation-enhancing effect
2 | SQK [Peptide 2] | particularly high level of motivation-enhancing effect
